Laboratory results as given in patent publication US8338565B2, “Macrocyclic compounds for inhibition of tumor necrosis factor alpha” (Ensemble Therapeutics Corporation, priority 2008, dated 2012).
pIC50: −log10 of the molar value. Numbered stars: 1 amine (or outer) side, 2 acyl side, 3 side chain; on linkers, the order of the positions; unused ones are H or OH. Bridge positions count the residues as written; N and C are the ends. Square brackets hold non-standard residues; d marks the D form. Peptide text beside a SMILES is read from it. * marks the point of attachment. Phe(4-CF3) = N[C@@H](Cc1ccc(C(F)(F)F)cc1)C(=O)O; Bip = N[C@@H](Cc1ccc(-c2ccccc2)cc1)C(=O)O; dPhe(4-NH2) = Nc1ccc(C[C@@H](N)C(=O)O)cc1; Phe(4-NH2) = Nc1ccc(C[C@H](N)C(=O)O)cc1; d(hPhe) = N[C@H](CCc1ccccc1)C(=O)O; d2Thi = N[C@H](Cc1cccs1)C(=O)O; Suc = O=C(CCC(=O)[*:2])[*:1]; Ac3c = NC1(C(=O)O)CC1; Boc = CC(C)(C)OC(=O)*; GABA = NCCCC(=O)O; βAla = NCCC(=O)O

Columns and labels:
[1] = biological target: T1, TNFα / TNFα receptor (TNFα R1/Fc) (Homo sapiens, UniProt P01375); assay: Inhibition of binding of TNFα to the TNFα receptor (plate ELISA competition); conditions: Table 2; read-out: Activity (IC50, inhibition of TNFα binding to TNFα R1/Fc)
T1 construct: purchased R&D Systems
T1 sequence (P01375 77-233 limits assumed, species assumed): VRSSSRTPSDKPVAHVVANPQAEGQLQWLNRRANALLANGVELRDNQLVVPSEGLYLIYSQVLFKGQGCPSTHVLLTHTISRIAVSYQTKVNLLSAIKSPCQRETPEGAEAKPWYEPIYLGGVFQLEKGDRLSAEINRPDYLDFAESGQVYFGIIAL
Procedure, shortened: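 Plates were coated with TNFα at 15 nM. Test compound and 8.33 nM receptor-Fc (PBST, 2% DMSO) were first mixed in solution for 30 min at room temperature, then transferred to the plates for another 30 min. Competition was read by absorbance at 450 nm after HRP anti-human IgG Fc detection with TMB.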

[2] = test system: TNF-α (degradation of IkB in HeLa cells or A431 cells); assay: Human cell-based assay: inhibition of TNF-α induced degradation of IkB; conditions: HeLa or A431 cells; for inhibition at 10 µM: 10 μM compound, read-out: Inhibition at Various Compound Concentrations, 10 μM; for inhibition at 25 µM: 25 μM compound, read-out: Inhibition at Various Compound Concentrations, 25 μM
Description: We used a human cell-based assay to determine the TNF-α antagonistic activity of the compounds of this invention based upon the ability of the compounds to inhibit the degradation of IkB in those cells. The assay was performed on either HeLa cells or A431 cells.
On Day 1, wells of a 24-well tissue culture plate were seeded with cells that had been harvested from cultures in T-75 flasks by standard trypsin/EDTA treatment. The harvested cells were suspended in EMEM/10% FBS/P/S (100,000 HeLa cells/mL or 200,000 A431 cells/mL) and 1 mL aliquots were placed into each well. The cells were incubated overnight at 37° C. in a humidified CO2 incubator. On day 2, the cells were approximately 95% confluent.
Test and control compounds were diluted to a 1 mM solution by dilution in DMSO. The assay was run in Costar tubes. Into each tube was placed 2.5 or 5.0 μL of test compound (for testing 5 μM and 10 μM concentrations, respectively), 2.5 μL of 100× TNF-α solution (200 ng/mL TNF-α in EMEM containing 1μg/mL cycloheximide) and, for those tubes containing 2.5 μL of compound, an additional 2.5 μL of DMSO. To each tube was then added 0.5 mL of EMEM containing 1μg/mL cycloheximide. Negative control tubes contained either a) no compound, or b) no TNF-α. Tubes were then incubated for 30 minutes at room temperature.
Once incubation had begun, the media was aspirated from the cells in the 24-well plates. Sufficient EMEM/10% FBS/P/S containing 1 ug/mL cycloheximide was then added to cover the cells (approximately 3 mL) and the cells were retuned to the 37° C. humidified CO2 incubator until compound incubation was completed. The media was then aspirated from the cells, 0.2 mL of the compound solution was added and the cells re-incubated at 37° C. for 30 minutes. The plates were then placed on ice, the compound solution was aspirated from each well, and the cells washed once with 1 mL of cold PBS. Cells were then fixed with 500 μL of 3.7% formaldehyde in PBS (“fix solution”) for 20 minutes at room temperature. The fix solution was decanted and the cells permeabilized by 4× washing with 500 uL PBS/0.1% Triton X-100. After the final permeabilization wash, the cells were treated with 500 uL of Odyssey blocking buffer (OBB) and incubated at room temperature with shaking for 90 minutes.
The OBB was decanted and then to each well was then added 125 μL each of mouse anti-IkB CST#4814 (diluted 1:200 in OBB) and rabbit anti-beta-tubulin CST#2146 (diluted 1:200 in OBB). Plates were sealed with parafin and incubated overnight at room temperature with shaking.
On day 3, the antibody solution was removed from the cells and the cells were washed 5× with 0.5 mL PBST for five minutes each on a shaker. To each well was then aded 125 μL of a secondary antibody solution containing goat anti-mouse IgG-IRDye 800 and goat anti-rabbit IgG-IRDye (each diluted 1:500 in OBB+0.2% Tween 20). The plates were covered with aluminum foil and incubated for 1 hour at room temperature with shaking. The secondary antibody solution was removed and the cells washed 3× with 0.5 mL PBST for five minutes each on a shaker. Cells were then scanned by LICOR with the following settings: 700 intensity=6.0, 800 intensity=6.5; microplate2 settings with 3.0 mm offset; 169 resolution. LICOR values were fitted to an equation for a sigmoidal curve and IC50 values calculated from the fitted parameters. […] Blank cells indicate that the compound was not tested at that concentration. Certain compounds that were tested more than once and the values reflect the average of the multiple tests.

Row | Structure (SMILES) | pIC50 [1] | inhibition at 10 µM [2] [%] | inhibition at 5 µM ([2]; 5 μM compound, read-out: Inhibition at Various Compound Concentrations, 5 μM) [%] | inhibition at 25 µM [2] [%]
1 | O=C(O)CCNC(=O)[C@H]1Cc2ccc(cc2)NC(=O)CCC(=O)N[C@H](CCc2ccccc2)C(=O)N[C@@H](Cc2ccc(C(F)(F)F)cc2)C(=O)N[C@H](Cc2ccccc2)C(=O)N1 [Compound 15] ([d(hPhe)][Phe(4-CF3)][dF][dPhe(4-NH2)][βAla]-OH; linker N-4 via Suc) | 4.52 to 5.00 | < 10 |  | 
2 | O=C(N[C@H](Cc1ccccc1)C(=O)O)[C@@H]1Cc2ccc(cc2)NC(=O)[C@H](O)[C@@H](O)C(=O)N[C@H](Cc2cccs2)C(=O)N[C@@H](Cc2ccc(-c3ccccc3)cc2)C(=O)N[C@H](Cc2ccccc2)C(=O)N1 [Compound 16] | > 5.00 | < 10 |  | 
3 | O=C1CCC(=O)N[C@H](CCc2ccccc2)C(=O)N[C@@H](Cc2ccc(C(F)(F)F)cc2)C(=O)N[C@H](Cc2ccccc2)C(=O)N[C@H](C(=O)NC2(C(=O)O)CC2)Cc2ccc(cc2)N1 [Compound 18] ([d(hPhe)][Phe(4-CF3)][dF][Phe(4-NH2)][Ac3c]-OH; linker N-4 via Suc) | 4.52 to 5.00 | 10 to 50 | 50 to 80 | 
4 | O=C(O)CNC(=O)[C@@H]1Cc2ccc(cc2)NC(=O)CCC(=O)N[C@H](Cc2cccs2)C(=O)N[C@@H](Cc2ccc(-c3ccccc3)cc2)C(=O)N[C@H](Cc2ccccc2)C(=O)N1 [Compound 19] ([d2Thi][Bip][dF][Phe(4-NH2)]G-OH; linker N-4 via Suc) | 4.52 to 5.00 |  |  | < 10
5 | C[C@H](NC(=O)[C@@H]1Cc2ccc(cc2)NC(=O)CCC(=O)N[C@H](Cc2cccs2)C(=O)N[C@@H](Cc2ccc(-c3ccccc3)cc2)C(=O)N[C@H](Cc2ccccc2)C(=O)N1)C(=O)O [Compound 20] ([d2Thi][Bip][dF][Phe(4-NH2)]A-OH; linker N-4 via Suc) | > 5.00 |  |  | < 10
6 | O=C(O)CCNC(=O)[C@@H]1Cc2ccc(cc2)NC(=O)CCC(=O)N[C@H](Cc2cccs2)C(=O)N[C@@H](Cc2ccc(-c3ccccc3)cc2)C(=O)N[C@H](Cc2ccccc2)C(=O)N1 [Compound 21] ([d2Thi][Bip][dF][Phe(4-NH2)][βAla]-OH; linker N-4 via Suc) | > 5.00 |  |  | < 10
7 | C[C@@H](NC(=O)[C@@H]1Cc2ccc(cc2)NC(=O)CCC(=O)N[C@H](Cc2cccs2)C(=O)N[C@@H](Cc2ccc(-c3ccccc3)cc2)C(=O)N[C@H](Cc2ccccc2)C(=O)N1)C(=O)O [Compound 24] ([d2Thi][Bip][dF][Phe(4-NH2)][dA]-OH; linker N-4 via Suc) | 4.00 to 4.52 |  |  | < 10
8 | CC(C)[C@H](NC(=O)[C@@H]1Cc2ccc(cc2)NC(=O)CCC(=O)N[C@H](Cc2cccs2)C(=O)N[C@@H](Cc2ccc(-c3ccccc3)cc2)C(=O)N[C@H](Cc2ccccc2)C(=O)N1)C(=O)O [Compound 26] ([d2Thi][Bip][dF][Phe(4-NH2)]V-OH; linker N-4 via Suc) | 4.52 to 5.00 |  |  | 10 to 50
9 | COC(=O)[C@H](CC(=O)O)NC(=O)[C@@H]1Cc2ccc(cc2)NC(=O)CCC(=O)N[C@H](Cc2cccs2)C(=O)N[C@@H](Cc2ccc(-c3ccccc3)cc2)C(=O)N[C@H](Cc2ccccc2)C(=O)N1 [Compound 29] ([d2Thi][Bip][dF][Phe(4-NH2)]D-OMe; linker N-4 via Suc) | > 5.00 |  |  | < 10
10 | O=C(O)CCCNC(=O)[C@@H]1Cc2ccc(cc2)NC(=O)CCC(=O)N[C@H](Cc2cccs2)C(=O)N[C@@H](Cc2ccc(-c3ccccc3)cc2)C(=O)N[C@H](Cc2ccccc2)C(=O)N1 [Compound 34] ([d2Thi][Bip][dF][Phe(4-NH2)][GABA]-OH; linker N-4 via Suc) | > 5.00 |  |  | < 10
11 | CC(C)(C)OC(=O)NCCCC[C@H](NC(=O)[C@@H]1Cc2ccc(cc2)NC(=O)CCC(=O)N[C@H](Cc2cccs2)C(=O)N[C@@H](Cc2ccc(-c3ccccc3)cc2)C(=O)N[C@H](Cc2ccccc2)C(=O)N1)C(=O)O [Compound 35] ([d2Thi][Bip][dF][Phe(4-NH2)]K(Boc)-OH; linker N-4 via Suc) | 4.52 to 5.00 |  |  | 50 to 80
